Patent US9474814B2, “Differential evaporation potentiated disinfectant system” (XY, LLC, priority 2007, dated 2016)

Tests used:
[1] = tested on: Staphylococcus aureus (ATCC 6538); test: Potentiation Assay (non-evaporative vs evaporative procedure); assay type: cell-based; details: for Evaporated Log 10 Reduction: evaporated in centrifuge 60 minutes; for Non-evaporated Log 10 Reduction: set 60 minutes; for evaporative potentiation of antimicrobial efficacy: evaporative vs non-evaporative procedure, concentrations tested in water
Description: Now referring primarily to Table 5 and FIG. […] The non-evaporative and evaporative procedures included 50 μL of an overnight Staphylococcus aureus (ATCC 6538, ˜10^9 CFU/mL) culture added to each 2 mL sterile plastic vial with a conical bottom and dried without capping in a centrifuge for 30 minutes. One hundred microliters of the solution being tested was added to each vial (as triplicate vials) either let set for 60 minutes (non-evaporative) or evaporated in a centrifuge for 60 minutes (evaporative), with time to evaporate being determined by each DAA mixtures own evaporative characteristic. To the non-evaporated vials, 400 μL Mueller Hinton Broth (MHB) was added to the vial and 100 μL was plated onto Nutrient agar (NA). To the evaporated vials, 500 μL of MHB was added and 100 μL was plated onto NA. Plates were incubated overnight at ˜37° C. and counted (the “Potentiation Assay”).

[2] = Relative evaporation rates; assay type: physicochemical; details: BuAc (reference) = 1.00
From the text: Line C represents the change in fluid volume of a 20% (v/v) solution of diacetone alcohol in water caused by evaporation (a particular embodiment of the inventive differential evaporation antimicrobial composition), while line D represents the change in fluid phase concentration of the same 20% (v/v) diacetone alcohol in water occurring during the same fluid volume change. In this case, complete evaporation can occur in approximately 75 time units. Comparatively, the 20% (v/v) diacetone alcohol in water can be engaged with a population of microorganisms for a greater duration of time than the conventional antimicrobial composition without reapplication of an additional amount because evaporation occurs at a slower rate as shown by Table 3.

[3] = neat substance; BuAc (reference) = 1.00; cited from earlier work
[4] = flash point; cited from earlier work
[5] = Table 1; cited from earlier work
[6] = 5% v/v active component, 95% water
[7] = 10% v/v active component, 90% water
[8] = 15% v/v active component, 85% water

Structure (SMILES) | Evaporated Log 10 Reduction [1, 6] | Non-evaporated Log 10 Reduction [1, 6] | Evaporated Log 10 Reduction [1, 7] | Non-evaporated Log 10 Reduction [1, 7] | Evaporated Log 10 Reduction [1, 8] | Non-evaporated Log 10 Reduction [1, 8] | evaporative potentiation of antimicrobial efficacy [1] | also measured
CN(C)CCO [DMEA, 2-dimethylaminoethanol] | XX (denotes a plate where the number of colonies represented less than 10% of the number of colonies counted in the corresponding positive control plate, representing a significant reduction of the number of microorganisms (>3 Log10 reduction).) | ---0--- (denotes a plate where the numbers of colonies represented more than 50% of the number of colonies counted in the corresponding positive control plate, representing no significant reduction in the population of viable microorganisms (0 to 1 Log10 reduction).) | XXx (denotes a plate where the number of colonies represented less than 1% of the number of colonies counted in the corresponding positive control plate, representing nearly complete reduction of the number of microorganisms (>4 Log10 reduction).) | ---0--- (denotes a plate where the numbers of colonies represented more than 50% of the number of colonies counted in the corresponding positive control plate, representing no significant reduction in the population of viable microorganisms (0 to 1 Log10 reduction).) | XXx (denotes a plate where the number of colonies represented less than 1% of the number of colonies counted in the corresponding positive control plate, representing nearly complete reduction of the number of microorganisms (>4 Log10 reduction).) | ---0--- (denotes a plate where the numbers of colonies represented more than 50% of the number of colonies counted in the corresponding positive control plate, representing no significant reduction in the population of viable microorganisms (0 to 1 Log10 reduction).) |  | 
CC(=O)OCCOC(C)=O [EGDA, ethylene glycol diethyl ester] | ---0--- (denotes a plate where the numbers of colonies represented more than 50% of the number of colonies counted in the corresponding positive control plate, representing no significant reduction in the population of viable microorganisms (0 to 1 Log10 reduction).) | ---0--- (denotes a plate where the numbers of colonies represented more than 50% of the number of colonies counted in the corresponding positive control plate, representing no significant reduction in the population of viable microorganisms (0 to 1 Log10 reduction).) | XX (denotes a plate where the number of colonies represented less than 10% of the number of colonies counted in the corresponding positive control plate, representing a significant reduction of the number of microorganisms (>3 Log10 reduction).) | ---0--- (denotes a plate where the numbers of colonies represented more than 50% of the number of colonies counted in the corresponding positive control plate, representing no significant reduction in the population of viable microorganisms (0 to 1 Log10 reduction).) | XX (denotes a plate where the number of colonies represented less than 10% of the number of colonies counted in the corresponding positive control plate, representing a significant reduction of the number of microorganisms (>3 Log10 reduction).) | ---0--- (denotes a plate where the numbers of colonies represented more than 50% of the number of colonies counted in the corresponding positive control plate, representing no significant reduction in the population of viable microorganisms (0 to 1 Log10 reduction).) | can be potentiated by evaporation | 
CCCCOCCO [EGMBE, ethylene glycol monobutyl ether] |  |  |  |  |  |  | can be potentiated by evaporation | Relative Evaporation Rates (estimated) ([2]; 10% (v/v)): 0.33; Relative Evaporation Rates (estimated) ([2]; 20% (v/v)): 0.30; Relative Evaporation Rates [3]: 0.06
COCCOC(C)=O [EGMEA, ethylene glycol monomethyl ether acetate] | ---0--- (denotes a plate where the numbers of colonies represented more than 50% of the number of colonies counted in the corresponding positive control plate, representing no significant reduction in the population of viable microorganisms (0 to 1 Log10 reduction).) | ---0--- (denotes a plate where the numbers of colonies represented more than 50% of the number of colonies counted in the corresponding positive control plate, representing no significant reduction in the population of viable microorganisms (0 to 1 Log10 reduction).) | ---0--- (denotes a plate where the numbers of colonies represented more than 50% of the number of colonies counted in the corresponding positive control plate, representing no significant reduction in the population of viable microorganisms (0 to 1 Log10 reduction).) | ---0--- (denotes a plate where the numbers of colonies represented more than 50% of the number of colonies counted in the corresponding positive control plate, representing no significant reduction in the population of viable microorganisms (0 to 1 Log10 reduction).) | XX (denotes a plate where the number of colonies represented less than 10% of the number of colonies counted in the corresponding positive control plate, representing a significant reduction of the number of microorganisms (>3 Log10 reduction).) | ---0--- (denotes a plate where the numbers of colonies represented more than 50% of the number of colonies counted in the corresponding positive control plate, representing no significant reduction in the population of viable microorganisms (0 to 1 Log10 reduction).) | can be potentiated by evaporation | 
CCO [Ethanol, reference compound] |  |  |  |  |  |  |  | FP [4]: 22 °C; Azeotrope with Water % v/v [5]: 94% v/v; Azeotrope with Water % w/w [5]: 95% w/w
CCC(C)=NO [MEKO, 2-butanone oxime] |  |  | XXX (denotes a plate in which zero colonies were present, representing complete reduction of the number of microorganisms (>5 Log10 reduction).) | XXX (denotes a plate in which zero colonies were present, representing complete reduction of the number of microorganisms (>5 Log10 reduction).) | XXX (denotes a plate in which zero colonies were present, representing complete reduction of the number of microorganisms (>5 Log10 reduction).) | XXX (denotes a plate in which zero colonies were present, representing complete reduction of the number of microorganisms (>5 Log10 reduction).) | can be potentiated by evaporation | 
CO [Methanol] |  |  |  |  |  |  |  | FP [4]: 11 °C
O [water] |  |  |  |  |  |  |  | Relative Evaporation Rates [3]: 0.36
